Tests used:
[1] = tested on: VEGFR-2 co-expressed biomarkers (mRNA levels in xenograft tumors); experiment: Gene expression profiling (Affymetrix mouse 430A arrays) of un-treated vs treated xenograft tumors; format: in vivo
Protocol: Tumors were propagated in nude mice as subcutaneous (sc) transplants using L2987 and HCT-116 cancer cell lines. Tumor passage occurred approximately every two to four weeks. Tumors were then allowed to grow to the pre-determined size window (100-200 mm^3, tumors outside the range were excluded) and animals were evenly distributed to various treatment and control groups. Animals were treated with the example VEGFR-2 inhibitor (100 mg/kg 1 qd×14 days). Treated animals were checked daily for treatment related toxicity/mortality. Each group of animals was weighed before the initiation of treatment (Wt1) and then again following the last treatment dose (Wt2). The difference in body weight (Wt2−Wt1) provided a measure of treatment-related toxicity. Tumor response was determined by measurement of tumors with a caliper twice a week, until the tumors reached a predetermined target size. Animals that were distributed to various treatment and control groups during the study were eventually sacrificed to obtain tumor and blood samples for genomic and protein analysis.
The colon tumor samples obtained from cancer patients were snap frozen in liquid nitrogen within 20 minutes of resection and stored thereafter at −80° C. The mouse xenograft tumor samples were split into two halves. One half was mixed in a vial of 10% formalin to be used for IHC and the other half was mixed in 1.0 ml of RNAlater™ RNA Stabilization Reagent (Ambion, Inc., Austin, Tex.) held at room temperature for 30 minutes then stored at −80° C. Total RNA was extracted from the tumor samples using the RNeasy Kit™ (Qiagen, Valencia Calif.). At least 1 μg total RNA with a 260/280 ratio ≧1.8 by spectrophotometry (DU640 UV, Beckman Coulter, Fullerton, Calif.) was required for transcriptional profiling. Briefly, the tumor samples were homogenized in a lysis-binding solution supplied by Qiagen. An equal volume of ethanol was mixed into each sample, the mixture was passed through the filter cartridges provided, and the rest of the extraction protocol was followed (Ambion). RNA yield and quality were assessed on a standard 1% agarose gel. A ratio 28 s/18 s RNA in the range of 1.5 to 2.5 indicated high quality RNA that is free of degradation. RNA samples were stored at −80° C.
Transcriptional profiling was performed on the RNA obtained from the tumor samples. The Affymetrix GeneChip system (Affymetrix, Santa Clara, Calif.) was used for hybridization and scanning of the human U133A and mouse 430A arrays. Data were preprocessed using the MAS 5.0 software. Generation of cRNA followed a standard T7 amplification protocol. Total RNA was reverse-transcribed with SuperScript II (Gibco, Carlsbad, Calif.) in the presence of T7-(dT)24 primer to generate first strand cDNA. A second-strand cDNA synthesis was performed in the presence of DNA Polymerase I, DNA ligase, and RNase H (Gibco). The resulting double-stranded cDNA was blunt-ended using T4 DNA polymerase. This double-stranded cDNA was then transcribed into cRNA in the presence of biotin-ribonucleotides using the BioArray High Yield RNA transcript labeling kit (Enzo Life Sciences, Farmingdale, N.Y.). The amplified, biotin-labeled cRNA was purified using Qiagen RNeasy columns (Qiagen Sciences), quantified and fragmented at 94° C. for 35 minutes in the presence of fragmentation buffer (1×). Fragmented cRNA was hybridized to the Affymetrix U113A and 430A arrays overnight at 42° C. The arrays were then placed in the fluidics stations for staining and washing as recommended by Affymetrix protocols. The chips were scanned and raw intensity values were generated for each probe on the arrays.
The 94 co-expressed VEGFR-2 genes identified from human cancers profiled on U133A arrays were used to identify their corresponding mouse homolog from mouse xenografts tumors profiled on mouse 430A arrays. […]

[2] = tested on: L2987 tumor xenograft; experiment: In vivo antitumor testing, L2987 tumor xenograft model; design: species or system mouse; details: L2987, nude mice, 100 mg/kg 1 qd×26
Protocol: In this example, the Table 2 biomarkers were identified using mouse xenograft tumor models that were treated with the example VEGFR-2 inhibitor.
Tumors were propagated in nude mice as subcutaneous (sc) transplants using tumor fragments obtained from donor mice. Tumor passage occurred approximately every two to four weeks. Tumors were then allowed to grow to the pre-determined size window (usually between 100-200 mg, tumors outside the range were excluded) and animals were evenly distributed to various treatment and control groups. Animals were treated with the example VEGFR-2 inhibitor (100 mg/kg 1 qd×26). Treated animals were checked daily for treatment related toxicity/mortality. […] Tumor response was determined by measurement of tumors with a caliper twice a week, until the tumors reached a predetermined target size of 1 gm or became necrotic. […]
Antitumor activity was determined in terms of primary tumor growth inhibition. This was determined in two ways: (i) calculating the relative median tumor weight (MTW) of treated (T) and control (C) mice at various time points (effects were expressed as % T/C); and (ii) calculating the tumor growth delay (T−C value), defined as the difference in time (days) required for the treated tumors (T) to reach a predetermined target size compared to those of the control group (C). […]

SMILES: Cc1cc2c(F)c(Oc3ncnn4cc(OC[C@@H](C)OC(=O)[C@H](C)N)c(C)c34)ccc2[nH]1 [example VEGFR-2 inhibitor, [(1R),2S]-2-Aminopropionic acid 2-[4-(4-fluoro-2-methyl-1H-indol-5-yloxy)-5-methylpyrrolo[2,1-f][1,2,4]triazin-6-yloxy]-1-methylethyl ester]
- fold-change mRNA, Tie1 ([1]; mouse 430A probe 1416238_at, 100 mg/kg 1 qd×14 days, t-test P 0.00103262): 11
- fold-change mRNA, endoglin (Eng) ([1]; mouse 430A probe 1417271_a_at, 100 mg/kg 1 qd×14 days, t-test P 0.021873085): 2
- fold-change mRNA, Prg1 ([1]; mouse 430A probe 1417426_at, 100 mg/kg 1 qd×14 days, t-test P 0.034821585): 2
- fold-change mRNA, Eltd1 ([1]; mouse 430A probe 1418059_at, 100 mg/kg 1 qd×14 days, t-test P 0.018655985): 2
- direction of change in mRNA levels, Tek ([1]; mouse 430A probe 1418788_at): no
- fold-change mRNA, Tek ([1]; mouse 430A probe 1418788_at, 100 mg/kg 1 qd×14 days, t-test P 0.047098006): 1
- direction of change in mRNA levels, S100a8 ([1]; mouse 430A probe 1419394_s_at): no
- fold-change mRNA, S100a8 ([1]; mouse 430A probe 1419394_s_at, 100 mg/kg 1 qd×14 days, t-test P 0.040857487): 1
- fold-change mRNA, C1qr1 (Ly68) ([1]; mouse 430A probe 1419589_at, 100 mg/kg 1 qd×14 days, t-test P 0.000005): 5
- fold-change mRNA, Agtrl1 ([1]; mouse 430A probe 1423037_at, 100 mg/kg 1 qd×14 days, t-test P 5.54812E−04): 4
- fold-change mRNA, nidogen 2 (Nid2) ([1]; mouse 430A probe 1423516_a_at, 100 mg/kg 1 qd×14 days, t-test P 0.024126268): 3
- direction of change in mRNA levels, Col16a1 ([1]; mouse 430A probe 1427986_a_at): no
- fold-change mRNA, Col4a1 ([1]; mouse 430A probe 1427986_a_at, 100 mg/kg 1 qd×14 days, t-test P 0.000014): 4
- fold-change mRNA, Col16a1 ([1]; mouse 430A probe 1427986_a_at, 100 mg/kg 1 qd×14 days, t-test P 0.014896833): 1
- fold-change mRNA, VE-Cadherin (Cdh5) ([1]; mouse 430A probe 1433956_at, 100 mg/kg 1 qd×14 days, t-test P 0.001154369): 2
- direction of change in mRNA levels, Pkig ([1]; mouse 430A probe 1434820_s_at): no
- fold-change mRNA, Pkig ([1]; mouse 430A probe 1434820_s_at, 100 mg/kg 1 qd×14 days, t-test P 0.032286798): 1
- fold-change mRNA, Agtrl1 ([1]; mouse 430A probe 1438651_a_at, 100 mg/kg 1 qd×14 days, t-test P 0.026038828): 2
- fold-change mRNA, Gng11 ([1]; mouse 430A probe 1448942_at, 100 mg/kg 1 qd×14 days, t-test P 0.001326667): 2
- direction of change in mRNA levels, Cav1 ([1]; mouse 430A probe 1449145_a_at): no
- fold-change mRNA, Cav1 ([1]; mouse 430A probe 1449145_a_at, 100 mg/kg 1 qd×14 days, t-test P 2.72030E−04): 1
- direction of change in mRNA levels, Pde1a ([1]; mouse 430A probe 1449298_a_at): no
- fold-change mRNA, Pde1a ([1]; mouse 430A probe 1449298_a_at, 100 mg/kg 1 qd×14 days, t-test P 0.025570996): 1
- fold-change mRNA, Col4a1 ([1]; mouse 430A probe 1452035_at, 100 mg/kg 1 qd×14 days, t-test P 0.000018): 6
- efficacy in mouse xenograft tumor model [2]: highly responsive

From patent US8067189B2, “Methods for determining sensitivity to vascular endothelial growth factor receptor-2 modulators by measuring the level of collagen type IV” (Bristol-Myers Squibb Company, priority 2005, dated 2011)
